In publication PMC3097154, “Antiviral activity of α-helical stapled peptides designed from the HIV-1 capsid dimerization domain” (Retrovirology, 2011):
Where two headings read alike, the source gives them in different places. Positions of bridges follow the written chain, without caps; N, C: chain ends. Non-standard residues stand in square brackets, D forms with d. Residues, ends and D or L forms follow the SMILES beside them. S5 = C=CCCC[C@](C)(N)C(=O)O

Experiments:
[1] = test system: wild type CTD (wtCTD) of HIV-1 CA; test: ITC dilution of CTD dimers in presence of peptide; assay type: binding; conditions: for Kdiss (apparent CTD dimer dissociation constant): ITC dilution, 30°C; for 200 μM CTD (fm), estimated fraction of CTD occurring as monomers: calculated from monomer-dimer equilibrium expressions
Experimental: The effect of the dimer interface peptide, NYAD-203, a soluble analog of NYAD-201, on dimer dissociation was first examined by isothermal titration calorimetry (ITC). Dilution of CTD by sequential ITC injections into buffer, pH 7.3, 30°;C gave a series of endothermic heat pulses (Figure 4) consistent with dissociation of protein oligomers modeled as dimers, with dimer dissociation constant (Kdiss) ~15 μM and dissociation enthalpy (ΔHdiss) of 10.7 kcal mole^-1. […] For such a mechanism, the apparent dimer dissociation constant should depend on the free peptide (inhibitor) concentration ([I]) and binding affinity (KI) as follows: [drawing 1]
or an approximate form that might be valid at high inhibitor concentrations: [drawing 2]
where Ci is the total peptide inhibitor concentration in the mixture. This analysis is, however, further complicated by apparent self-association of the peptide (see NMR section) that reduces the availability of free monomer (lower [I]) at higher concentrations and thus leads to underestimation of peptide binding affinities and a concentration dependence of apparent Ki. However, by use of the above equations and extrapolation to low concentrations, we obtain a value of Ki = 40 (±5) μM for the binding of stapled peptide (NYAD-203) monomer to CTD under these conditions.
The influence of the peptides on dimer dissociation of wild type CTD (wtCTD) was investigated by ITC (MicroCal VP-ITC) following established protocols. Proteins were exhaustively dialyzed against the 25 mM sodium phosphate buffer (pH 7.3) prior to experimental measurements. In a typical experiment, the ITC injection syringe was loaded with 250 μM protein, dissolved in dialysis buffer or dialysis buffer/peptide mixture and the calorimetric cell (ca. 1.4 ml active volume) initially contained only the identical buffer mixture. Typically titrations consisted of 28 injections of 10 μl, with 240-s equilibration between injections. The thermodynamic parameters were obtained and data were analyzed using MicroCal Origin 7.0 software, using an updated and corrected (June 2008) version of the dissociation analysis procedure, validated by comparison with earlier analysis methods.

[2] = test system: monomeric CTD mutant (W184A/M185A); test: Binding to monomeric CTD mutant; set-up: species or system HIV-1; conditions: data not shown
[3] = NMR of isolated peptide (self-association); assay type: physicochemical; conditions: 20 mM phosphate buffer pH 7.0, 288 K
HIV-1 CA = conditions: 25°C, pH 7.3, ideal single-species model, CA alone 41,213
Experimental: In the second set of experiments, the possible effect of NYAD-203 on dimer stability was analyzed by sedimentation equilibrium.
Sedimentation equilibrium experiments were performed using a ProteomeLab XL-A analytical ultracentrifuge using 6-channel centerpieces in an An-60Ti rotor at 25°C. Protein samples were dialyzed into 50 mM sodium phosphate buffer (pH 7.3). […] Radial scans were measured at 280 nm. The data were fitted to an ideal single-species model as well as a rapid monomer-dimer equilibrium using the Beckman XL-A/XL-I Data Analysis Software (Version 6.03).

[4] = test system: GFP-Vpr-labeled HIV-1 virions in SupT1 cells; test: Virus entry, GFP-Vpr-labeled HIV-1 virions, FACS; assay type: cell-based; conditions: 111 nM

CSCC[C@@H]1NC(=O)[C@H](Cc2c[nH]c3ccccc23)NC(=O)[C@@](C)(NC(=O)[C@H](CCCCN)NC(=O)[C@@H](NC(=O)[C@H](C)NC(=O)[C@H](CCC(N)=O)NC(=O)[C@H](C)N)C(C)C)CCC/C=C\CCC[C@@](C)(C(=O)N[C@H](C(=O)N[C@@H](CC(C)C)C(=O)N[C@@H](CC(C)C)C(=O)N[C@H](C(=O)N[C@@H](C)C(=O)N[C@@H](CCCCN)C(=O)N[C@@H](CCCCN)C(=O)N[C@@H](CCCCN)C(=O)O)C(C)C)[C@@H](C)O)NC(=O)[C@H]([C@@H](C)O)NC1=O [NYAD-203] (H-AQAVK[S5]WMT[S5]TLLVAKKK-OH; staple (Z) 6-10; N-terminus and C-terminus assumed)
Kdiss (apparent CTD dimer dissociation constant) ([1]; CI 50 μM NYAD-203, 25 mM sodium phosphate pH 7.3, 250 μM CTD in syringe): 31.2 (±6.6) μM | 200 μM CTD (fm), estimated fraction of CTD occurring as monomers ([1]; CI 50 μM NYAD-203): 24% | Kdiss (apparent CTD dimer dissociation constant) ([1]; CI 200 μM NYAD-203, pH 7.3): 33.2 (±3.9) μM | 200 μM CTD (fm), estimated fraction of CTD occurring as monomers ([1]; CI 200 μM NYAD-203): 25% | Kdiss (apparent CTD dimer dissociation constant) ([1]; CI 350 μM NYAD-203, pH 7.3): 40.5 (±6.2) μM | 200 μM CTD (fm), estimated fraction of CTD occurring as monomers ([1]; CI 350 μM NYAD-203): 27% | affinity for monomeric CTD mutant (W184A/M185A) [2]: no measurable affinity | self-association of isolated peptide [3]: self-associates to form polymeric species | apparent molecular weight of CA (HIV-1 CA; CA:NYAD-203 = 1:1 (30 μM CA, 30 μM peptide)): 30,343 Daltons | apparent molecular weight of CA (HIV-1 CA; CA:NYAD-203 = 1:3 (30 μM CA, 90 μM peptide)): 27,338 Daltons

IRQGPKEPFRDYVDR [NYAD-401]
ITC heat effect (binding) ([1]; unstapled control peptide): no apparent heat effect

enfuvirtide [T-20]
inhibition of viral entry [4]: substantially inhibited viral entry
